Measured values taken from ChEMBL document CHEMBL1201862, “PubChem BioAssay data set” (2004).
Calls of active or inactive are those of the source. Unless noted, the rule behind the calls is not given here.

Columns and labels:
INS1 = experiment: INS-1E survival protection against cytokine death – cell-based, luminescence, retest, dose response (AID 449756); type: functional; conditions: Rattus norvegicus;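 also: cell death triggered by IL-1 beta plus TNF-alpha plus IFN-gamma mixture; protective hits raise ATP signal compared with cytokine alone wells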
[1] = IC50 of Artemis nuclease activity blockers – biochemical, fluorescence intensity, dose response (AID 720701); type: functional;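 also: Artemis endonuclease enzyme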
[2] = NIH-3T3 fibroblast cytotoxicity, dose response, cytotoxicity control, cell-based, fluorescence, Alamar Blue, secondary assay (AID 2327); type: functional;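 also: NIH-3T3 mouse fibroblasts cultured with fluconazole at 8 µg/mL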
[3] = fluconazole-exposed Candida albicans growth modulators – fluorescence, retest, confirmation (AID 2467); type: functional, cell-based
Interleukin-8 = biological target: T1, Interleukin-8 (Homo sapiens, UniProt P10145); experiment: Dose Response confirmation of uHTS small molecule hits for cystic fibrosis induced NFkb Inhibitors in a PAF-induced IL8 counterscreen.; type: functional; conditions: read-out: IC50_Mean
T1 sequence (P10145 whole entry): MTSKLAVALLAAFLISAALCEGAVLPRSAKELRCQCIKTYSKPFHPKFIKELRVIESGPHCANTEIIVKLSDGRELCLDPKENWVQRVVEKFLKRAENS

Kallikrein-7 = Kallikrein-7 (Homo sapiens, UniProt P49862); experiment: Fluorescence Intensity-based biochemical primary high throughput dose response assay to identify activators of kallikrein-7 (K7) zymogen.
[4] = biological target: C-X-C chemokine receptor type 4 (Homo sapiens, UniProt P61073); experiment: SAR analysis of small molecule antagonists of the CXCR6 receptor using a CXCR4 receptor luminescent beta-arrestin counterscreen.; type: functional
[5] = biological target: C-C chemokine receptor type 6 (Homo sapiens, UniProt P51684); experiment: SAR analysis of small molecule antagonists of the CXCR6 receptor using a CCR6 receptor luminescent beta-arrestin counterscreen.; type: functional
[6] = viability loss in HEK293 kidney cells – cell-based, cherry-picks, set 5, cytotoxicity control, dose response (AID 1053117); type: functional
[7] = viability loss in A549 lung cancer cells – cell-based, cherry-picks, […], cytotoxicity control, dose response (AID 1053119); type: functional
[8] = blockers of FN fibrillogenesis by fibroblasts – AH1F cells, Alexa488-FN fluorescence, cherry-picks, dose response (AID 1035475); type: functional, cell-based
[9] = ATP-based viability loss in HEK293T cells – cell-based, CellTiter-Glo luminescence, dry powder, set 2, cytotoxicity control, dose response (AID 720595); type: functional; conditions: HEK293
[10] = ATP-based viability loss in HeLa cells – cell-based, CellTiter-Glo luminescence, dry powder, set 2, cytotoxicity control, dose response (AID 720593); type: functional
[11] = dual-tagged ARNT PAS-B bead signal quenchers – biochemical, dry powder, artefact control for ARNT/TACC3 disruptor project, dose response (AID 720564)
[12] = viability loss in A549 lung cells – cell-based, 24 h, CellTiter-Glo luminescence, cherry-picks, cytotoxicity control, dose response (AID 1053115); type: functional; conditions: A549, 24 h
fMet-Leu-Phe receptor = fMet-Leu-Phe receptor (Homo sapiens, UniProt P21462); experiment: formyl peptide receptor binders – dose response (AID 519); type: functional
fMet-Leu-Phe receptor, sequence (P21462 whole entry): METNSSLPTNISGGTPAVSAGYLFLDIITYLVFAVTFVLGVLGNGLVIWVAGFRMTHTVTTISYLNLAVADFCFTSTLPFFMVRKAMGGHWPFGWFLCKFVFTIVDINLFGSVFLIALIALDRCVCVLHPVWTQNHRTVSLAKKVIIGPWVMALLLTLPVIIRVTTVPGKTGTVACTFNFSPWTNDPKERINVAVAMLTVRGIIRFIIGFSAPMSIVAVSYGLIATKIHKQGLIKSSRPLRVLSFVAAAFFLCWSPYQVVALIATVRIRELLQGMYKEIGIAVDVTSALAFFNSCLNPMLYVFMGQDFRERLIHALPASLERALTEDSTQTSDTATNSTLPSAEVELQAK

Kallikrein-7, sequence (P49862 whole entry): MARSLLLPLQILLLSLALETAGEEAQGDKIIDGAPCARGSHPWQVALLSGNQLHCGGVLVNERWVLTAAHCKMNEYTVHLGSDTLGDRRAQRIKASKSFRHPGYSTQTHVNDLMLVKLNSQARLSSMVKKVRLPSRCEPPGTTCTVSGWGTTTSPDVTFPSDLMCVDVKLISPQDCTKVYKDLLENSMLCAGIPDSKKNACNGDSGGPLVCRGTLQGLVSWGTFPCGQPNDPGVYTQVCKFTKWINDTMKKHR
C-C chemokine receptor type 6, sequence (P51684 whole entry): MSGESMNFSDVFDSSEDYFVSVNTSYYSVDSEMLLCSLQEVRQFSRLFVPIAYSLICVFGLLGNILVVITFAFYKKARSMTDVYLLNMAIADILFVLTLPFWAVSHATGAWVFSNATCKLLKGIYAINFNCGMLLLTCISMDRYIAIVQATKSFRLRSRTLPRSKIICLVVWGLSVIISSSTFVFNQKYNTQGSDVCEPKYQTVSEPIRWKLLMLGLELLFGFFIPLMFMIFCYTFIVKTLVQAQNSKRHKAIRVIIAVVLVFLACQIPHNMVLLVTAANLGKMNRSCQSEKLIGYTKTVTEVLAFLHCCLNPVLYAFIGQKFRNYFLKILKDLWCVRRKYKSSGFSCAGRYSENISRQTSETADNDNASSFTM
C-X-C chemokine receptor type 4, sequence (P61073 whole entry): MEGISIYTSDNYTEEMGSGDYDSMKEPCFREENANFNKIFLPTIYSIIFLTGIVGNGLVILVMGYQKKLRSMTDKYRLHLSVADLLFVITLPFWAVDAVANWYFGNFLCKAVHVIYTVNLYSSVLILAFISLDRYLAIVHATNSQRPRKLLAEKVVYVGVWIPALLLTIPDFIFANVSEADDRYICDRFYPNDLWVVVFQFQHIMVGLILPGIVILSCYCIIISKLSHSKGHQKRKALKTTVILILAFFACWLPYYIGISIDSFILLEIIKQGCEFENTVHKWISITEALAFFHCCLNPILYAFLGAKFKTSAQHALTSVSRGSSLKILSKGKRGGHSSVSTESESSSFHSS

For c1ccc(-c2nnc3sc(-c4csc5c4CCCC5)nn23)cc1, the AC50 (INS1) was 64.1 µM (active) and the IC50 [1] was > 20 µM (inactive).

With COc1ccc(-c2cc(=O)oc3cc(OC(=O)C4CCCCC4)c(Cl)cc23)cc1 the EC50 [2] was 34.6 µM (active), the EC50 [3] was 1.9 µM (active) and the IC50 (Interleukin-8) was 4.55 µM (active). The EC50 (Kallikrein-7) was > 69.5 µM (inactive).

In the case of COc1cc(C(=O)NC2CC3CCCC(C2)N3CC(=O)Nc2ccccc2)cc(OC)c1OC (stereo unspecified), the IC50 [4] is reported as > 79 µM (inactive) and the IC50 [5] is reported as > 79 µM (inactive).

With N#Cc1ccc(-c2ccc3c(c2)[C@H]2[C@H](CCN2S(=O)(=O)c2cccc(F)c2)[C@H](CO)N3)cc1 the AC50 [6] was 32.6 µM (active), the AC50 [7] was 33.6 µM (active) and the AC50 [8] was 5.71 µM (active).

With O=C(Nc1nnc(-c2ccc(F)cc2)o1)c1ccc(S(=O)(=O)N2CCCCC2)cc1 the AC50 [9] was 2.51 µM (active), the AC50 [10] was 46.1 µM (active) and the AC50 [11] was 72.4 µM (active).

For COc1ccccc1CN1CC[C@@H]2[C@H](CO)Nc3ccc(C#Cc4ccccc4)cc3[C@@H]21, the AC50 [12] was > 60 µM (inactive).

For Cc1cc(SCC(N)=O)nc(SCC(=O)c2ccccc2)n1, the Ki (fMet-Leu-Phe receptor) was > 66.7 µM (inactive).
